Source: BigSolDB 2.1

## O=C(O)CC(O)C(=O)O (stereo unspecified)
In ethanol, 298.15 K
  solubility (mole fraction): 0.109
In ethanol, 303.15 K
  solubility (mole fraction): 0.12
In ethanol, 308.15 K
  solubility (mole fraction): 0.136
In ethanol, 313.15 K
  solubility (mole fraction): 0.148
In ethanol, 318.15 K
  solubility (mole fraction): 0.165
In ethanol, 323.15 K
  solubility (mole fraction): 0.184
In ethanol, 328.15 K
  solubility (mole fraction): 0.207
In ethanol, 333.15 K
  solubility (mole fraction): 0.227
In water, 298.15 K
  solubility (mole fraction): 0.15
In water, 303.15 K
  solubility (mole fraction): 0.161
In water, 308.15 K
  solubility (mole fraction): 0.178
In water, 313.15 K
  solubility (mole fraction): 0.196
In water, 318.15 K
  solubility (mole fraction): 0.213
In water, 323.15 K
  solubility (mole fraction): 0.229
In water, 328.15 K
  solubility (mole fraction): 0.249
In water, 333.15 K
  solubility (mole fraction): 0.271
